The record followed here is ChEMBL document CHEMBL3046476, “Qsar for Acetylcholinesterase and Butyrylcholinesterase Inhibition by Cardiovascular Drugs and Benzodiazepines” (Med Chem Res, 2005).

The target of test [1] is Cholinesterase (Equus caballus) (UniProt P81908). Put plainly: Reversible mixed-type inhibition of Equus caballus (horse) serum butyrylcholinesterase (BChE) assessed as inhibition of BTCh hydrolysis by Ellman method.
A further test has as its target Acetylcholinesterase (Electrophorus electricus, UniProt O42275). Put plainly: Inhibition of Electrophorus electricus (electric eel) acetylcholinesterase (AChE) assessed as inhibition of ATCh hydrolysis by Ellman method.
In another test the target is Cholinesterase (Equus caballus, UniProt P81908). Put plainly: Inhibition of Equus caballus (horse) serum butyrylcholinesterase (BChE) assessed as inhibition of BTCh hydrolysis by Ellman method.

Counter-ions that a name gives are not always drawn. Activity calls are given as the source filed them. No cut-off for these calls is given here.

Acetylcholinesterase, sequence (O42275 whole entry): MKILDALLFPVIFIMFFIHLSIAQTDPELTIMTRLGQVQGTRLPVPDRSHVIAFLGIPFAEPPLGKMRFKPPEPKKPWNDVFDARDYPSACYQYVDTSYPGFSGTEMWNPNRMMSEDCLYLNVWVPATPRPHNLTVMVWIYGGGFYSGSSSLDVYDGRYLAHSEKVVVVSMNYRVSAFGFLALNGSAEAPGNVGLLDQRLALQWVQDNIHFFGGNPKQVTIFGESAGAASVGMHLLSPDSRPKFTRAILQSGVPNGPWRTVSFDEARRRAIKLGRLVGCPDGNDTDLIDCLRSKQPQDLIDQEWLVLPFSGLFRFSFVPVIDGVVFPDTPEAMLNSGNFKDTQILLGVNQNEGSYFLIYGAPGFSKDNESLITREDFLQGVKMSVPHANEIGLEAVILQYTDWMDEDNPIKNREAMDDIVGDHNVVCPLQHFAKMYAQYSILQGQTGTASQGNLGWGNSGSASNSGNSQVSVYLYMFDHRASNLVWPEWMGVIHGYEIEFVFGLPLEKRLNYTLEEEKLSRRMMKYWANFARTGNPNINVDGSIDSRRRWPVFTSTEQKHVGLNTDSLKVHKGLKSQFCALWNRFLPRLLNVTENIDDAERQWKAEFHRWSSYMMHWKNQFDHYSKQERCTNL
Cholinesterase, sequence (P81908 whole entry): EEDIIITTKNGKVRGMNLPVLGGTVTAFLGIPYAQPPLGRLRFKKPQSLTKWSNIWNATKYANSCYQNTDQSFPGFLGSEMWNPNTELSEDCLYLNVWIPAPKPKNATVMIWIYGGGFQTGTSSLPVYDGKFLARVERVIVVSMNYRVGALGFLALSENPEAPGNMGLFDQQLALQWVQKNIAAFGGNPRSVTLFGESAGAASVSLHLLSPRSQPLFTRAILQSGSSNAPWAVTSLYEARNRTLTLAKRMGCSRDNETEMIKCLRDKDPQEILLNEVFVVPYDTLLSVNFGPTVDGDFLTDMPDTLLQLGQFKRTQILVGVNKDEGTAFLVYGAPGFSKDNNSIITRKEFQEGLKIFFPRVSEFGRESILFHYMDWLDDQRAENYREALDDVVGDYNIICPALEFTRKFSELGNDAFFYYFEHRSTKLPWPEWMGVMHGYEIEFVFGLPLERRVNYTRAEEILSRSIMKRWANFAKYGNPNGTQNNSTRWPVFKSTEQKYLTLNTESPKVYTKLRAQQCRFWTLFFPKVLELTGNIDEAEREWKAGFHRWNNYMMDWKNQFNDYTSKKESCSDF
Cholinesterase (Equus caballus), sequence (P81908 whole entry): as above

Regarding `CN1C(=O)CN=C(c2ccccc2)c2cc(Cl)ccc21` [DIAZEPAM], the inhibition entry in test [1] is “Active”. In addition, the Ki is 13 µM at Acetylcholinesterase (read-out: Ki) and 251 µM at Acetylcholinesterase (read-out: pKi (converted)).

Consider `CCOC(=O)C1=C(COCCN)NC(C)=C(C(=O)OC)C1c1ccccc1Cl` (centres undefined), for which, in test [1], the inhibition result was “Active”.

`COC(=O)C1=C(C)NC(C)=C(C(=O)OC)C1c1ccccc1[N+](=O)[O-]` [NIFEDIPINE]: the Ki at Cholinesterase (read-out: Ki) was 1.2 µM; at Cholinesterase (read-out: pKi (converted)) it was 5.01 µM; at Acetylcholinesterase (read-out: Ki), 4 µM; at Acetylcholinesterase (read-out: pKi (converted)), 251 µM. For the same compound, the inhibition entry in test [1] is “Active”.

On to `CCC(C)(C)C(=O)O[C@H]1C[C@@H](C)C=C2C=C[C@H](C)[C@H](CC[C@@H]3C[C@@H](O)CC(=O)O3)[C@H]21` [SIMVASTATIN], for which the Ki was 0.75 µM on Cholinesterase (read-out: Ki), 5.01 µM at Cholinesterase (read-out: pKi (converted)), 1.8 µM on Acetylcholinesterase (read-out: Ki) and 251 µM on Acetylcholinesterase (read-out: pKi (converted)).

With `CC[C@H](C)C(=O)O[C@H]1C[C@@H](C)C=C2C=C[C@H](C)[C@H](CC[C@@H]3C[C@@H](O)CC(=O)O3)[C@H]21` [LOVASTATIN], the Ki was 1.1 µM at Cholinesterase (read-out: Ki), 5.01 µM at Cholinesterase (read-out: pKi (converted)), 2.7 µM on Acetylcholinesterase (read-out: Ki) and 251 µM at Acetylcholinesterase (read-out: pKi (converted)). In test [1], the inhibition result is “Active”.

In the case of `NNc1nncc2ccccc12` [HYDRALAZINE HYDROCHLORIDE], the Ki was 1.9 µM on Cholinesterase (read-out: Ki), 5.01 µM on Cholinesterase (read-out: pKi (converted)), 7 µM on Acetylcholinesterase (read-out: Ki) and 251 µM at Acetylcholinesterase (read-out: pKi (converted)). The inhibition result in test [1] was “Active”.

Turning to `CNC1=Nc2ccc(Cl)cc2C(c2ccccc2)=[N+]([O-])C1`, in test [1], the inhibition entry is “Active”.
